From US6770597B2, “Benzohydrazide derivatives as herbicides and desiccant compositions containing them” (Ishihara Sangyo Kaisha, Ltd., priority 2002, dated 2004)

Columns and labels:
Assay type in all cases: in vivo
[1] = system: barnyardgrass (Echinochloa crus-galli, ECHCG); assay: Greenhouse herbicide screen, post-emerge application, phytotoxicity rating; settings: POST emergent, 14 days after application, scale 0-100
In short: (§1)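 Acetone-dissolved compounds are sprayed over pots at 15 to 1000 g ai/ha with a flat fan nozzle 40–45 cm above the target. Pre-emerge pots are top-watered immediately to incorporate; post-emerge pots are bottom-watered. Plants are rated 0–100 after 14 days.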

[2] = system: cocklebur (Xanthium strumarium, XANST); assay: as above; settings: POST emergent, 14 days after application, scale 0-100
In short: as §1

[3] = system: common ragweed (Ambrosia artemisiifolia L., AMBEL); assay: as above; settings: POST emergent, 14 days after application, scale 0-100
In short: as §1

[4] = system: green foxtail (Setaria viridis, SETVI); assay: as above; settings: POST emergent, 14 days after application, scale 0-100
In short: as §1

[5] = system: ivyleaf morningglory (Ipomoea hederacea, IPOHE); assay: as above; settings: POST emergent, 14 days after application, scale 0-100
In short: as §1

[6] = system: johnsongrass (Sorghum halepense, SORHA); assay: as above; settings: POST emergent, 14 days after application, scale 0-100
In short: as §1

[7] = system: lambsquarters (Chenopodium album, CHEAL); assay: as above; settings: POST emergent, 14 days after application, scale 0-100
In short: as §1

[8] = system: large crabgrass (Digitaria sanguinalis, DIGSA); assay: as above; settings: POST emergent, 14 days after application, scale 0-100
In short: as §1

[9] = system: redroot pigweed (Amaranthus retrofiexus, AMARE); assay: as above; settings: POST emergent, 14 days after application
In short: as §1

[10] = system: sicklepod (Cassia obtusifolia, CASOB); assay: as above; settings: POST emergent, 14 days after application, scale 0-100
In short: as §1

[11] = system: velvetleaf (Abutilon theophrasti, ABUTH); assay: as above; settings: POST emergent, 14 days after application, scale 0-100
In short: as §1

[12] = system: field corn (Zea mays L., var. Dekalb 535, CORN); assay: Greenhouse herbicide screen, post-emerge application, crop damage rating; settings: POST emergent, 14 days after application, scale 0-100
Excerpt: (§2) A standard greenhouse herbicide activity screening system was used to evaluate the herbicidal efficacy and crop safety of these test compounds. Seven broadleaf weed species including redroot pigweed (Amaranthus retrofiexus, AMARE), velvetleaf (Abutilon theophrasti, ABUTH), sicklepod (Cassia obtusifolia, CASOB), ivyleaf morningglory (Ipomoea hederacea, IPOHE), lambsquarters (Chenopodium album, CHEAL), common ragweed (Ambrosia artemisiifolia L., AMBEL), and cocklebur (Xanthium strumarium, XANST) were used as test species. Four grass weed species including green foxtail (Setaria viridis, SETVI), barnyardgrass (Echinochloa crus-galli, ECHCG), johnsongrass (Sorghum halepense, SORHA), and large crabgrass (Digitaria sanguinalis, DIGSA) were also used. In addition, four crop species, field corn (Zea mays L., var. Dekalb 535, CORN), soybean (Glycine max L., var. Pella 86, SOY), upland rice (Oryza sp., var.Cocodrie, RICE) and wheat (Triticum aestivum L.) were included.
(§3) All plants were grown in 10 cm square plastic pots which were filled with a sandy loam soil mix. For pre-emerge tests, seeds were planted one day prior to application of the test compounds. For post-emerge tests, seeds were planted 8-21 days prior to the test to allow emergence and good foliage development prior to application of the test substances. At the time of the post-emerge application, plants of all species were usually at the 2-3 leaf stage of development.
(§4) All test compounds were dissolved in acetone and applied to the test units in a volume of 187 l/ha. Test materials were applied at rates ranging from 15 g ai/ha to 1000 g ai/ha using a track sprayer equipped with a TJ8001E even flow flat fan spray nozzle. Plants were arranged on a shelf so that the top of the canopy (post-emerge) or top of the soil surface (pre-emerge) was 40-45 cm below the nozzle. Pressurized air was used to force the test solution through the nozzle as it was mechanically advanced (via electrically driven chain drive) over the top of all test plants/pots. This application simulates a typical commercial field herbicide application.
(§5) Pre-emergence tests were top watered immediately after treatment to incorporate the test materials, then routinely top-watered for normal growth. Post-emerge test units were always bottom-watered.
(§6) At 14 days after application of the test materials, phytotoxicity ratings were recorded. A rating scale of 0-100 was used as previously described in Research Methods in Weed Science, 2nd edition, B. Truelove, Ed., Southern Weed Science Society, Auburn University, Auburn, Ala., 1977. Briefly, “0” corresponds to no damage and “100” corresponds to complete death of all plants in the test unit. This scale was used both to determine efficacy against weed species and damage to crop species. Herbicide activity data for various compounds of this invention, which are shown by compound No. in Tables 1-12, are shown in Tables 13 and 14.

[13] = system: upland rice (Oryza sp., var.Cocodrie, RICE); assay: as above; settings: POST emergent, 14 days after application, scale 0-100
Excerpt: as §2, §3, §4, §5, §6

[14] = system: barnyardgrass (Echinochloa crus-galli, ECHCG); assay: Greenhouse herbicide screen, pre-emerge application, phytotoxicity rating; settings: PRE emergent, 14 days after application, rating scale 0-100
In short: as §1

[15] = system: cocklebur (Xanthium strumarium, XANST); assay: as above; settings: PRE emergent, 14 days after application, rating scale 0-100
In short: as §1

[16] = system: common ragweed (Ambrosia artemisiifolia L., AMBEL); assay: as above; settings: PRE emergent, 14 days after application, rating scale 0-100
In short: as §1

[17] = system: green foxtail (Setaria viridis, SETVI); assay: as above; settings: PRE emergent, 14 days after application, rating scale 0-100
In short: as §1

[18] = system: ivyleaf morningglory (Ipomoea hederacea, IPOHE); assay: as above; settings: PRE emergent, 14 days after application, rating scale 0-100
In short: as §1

[19] = system: johnsongrass (Sorghum halepense, SORHA); assay: as above; settings: PRE emergent, 14 days after application, rating scale 0-100
In short: as §1

[20] = system: lambsquarters (Chenopodium album, CHEAL); assay: as above; settings: PRE emergent, 14 days after application, rating scale 0-100
In short: as §1

[21] = system: large crabgrass (Digitaria sanguinalis, DIGSA); assay: as above; settings: PRE emergent, 14 days after application, rating scale 0-100
In short: as §1

[22] = system: redroot pigweed (Amaranthus retrofiexus, AMARE); assay: as above; settings: PRE emergent, 14 days after application, rating scale 0-100
In short: as §1

[23] = system: sicklepod (Cassia obtusifolia, CASOB); assay: as above; settings: PRE emergent, 14 days after application, rating scale 0-100
In short: as §1

[24] = system: velvetleaf (Abutilon theophrasti, ABUTH); assay: as above; settings: PRE emergent, 14 days after application, rating scale 0-100
In short: as §1

[25] = system: field corn (Zea mays L., var. Dekalb 535, CORN); assay: Greenhouse herbicide screen, pre-emerge application, crop damage rating; settings: PRE emergent, 14 days after application, rating scale 0-100
Excerpt: as §2, §3, §4, §5, §6

[26] = system: upland rice (Oryza sp., var.Cocodrie, RICE); assay: as above; settings: PRE emergent, 14 days after application, rating scale 0-100
Excerpt: as §2, §3, §4, §5, §6

[27] = 63 g ai/ha, scale 0-100 (0 no damage, 100 complete death)

CC1CCCC(C)N1NC(=O)c1cc(-n2c(=O)cc(C(F)(F)F)n(C)c2=O)c(F)cc1Cl (centres unmarked) [Compound 1-16]
98: phytotoxicity rating ECHCO ([1]; 250 g ai/ha) | phytotoxicity rating DIGSA ([8]; 250 g ai/ha) | phytotoxicity rating CASOB ([10]; 63 g ai/ha) | crop damage rating RICE ([13]; 250 g ai/ha) | phytotoxicity rating ECHCG ([14]; 250 g ai/ha) | phytotoxicity rating DIGSA ([21]; 250 g ai/ha) | phytotoxicity rating CASOB ([23]; 63 g ai/ha) | crop damage rating RICE ([26]; 250 g ai/ha)
99: phytotoxicity rating AMBEL ([3]; 63 g ai/ha) | phytotoxicity rating AMBEL ([3]; 250 g ai/ha) | phytotoxicity rating SETVI ([4]; 250 g ai/ha) | phytotoxicity rating SORHA ([6]; 250 g ai/ha) | phytotoxicity rating CASOB ([10]; 250 g ai/ha) | phytotoxicity rating AMBEL ([16]; 63 g ai/ha) | phytotoxicity rating AMBEL ([16]; 250 g ai/ha) | phytotoxicity rating SETVI ([17]; 250 g ai/ha) | phytotoxicity rating SORHA ([19]; 250 g ai/ha) | phytotoxicity rating CASOB ([23]; 250 g ai/ha)
100: phytotoxicity rating XANST ([2]; 250 g ai/ha) | phytotoxicity rating IPOHE ([5]; 63 g ai/ha) | phytotoxicity rating IPOHE ([5]; 250 g ai/ha) | phytotoxicity rating CHEAL ([7]; 63 g ai/ha) | phytotoxicity rating CHEAL ([7]; 250 g ai/ha) | phytotoxicity rating AMARE [9, 27] | phytotoxicity rating AMARE ([9]; 250 g ai/ha, scale 0-100) | phytotoxicity rating ABUTH ([11]; 63 g ai/ha) | phytotoxicity rating ABUTH ([11]; 250 g ai/ha) | crop damage rating CORN ([12]; 63 g ai/ha) | crop damage rating CORN ([12]; 250 g ai/ha) | phytotoxicity rating XANST ([15]; 250 g ai/ha) | phytotoxicity rating IPOHE ([18]; 63 g ai/ha) | phytotoxicity rating IPOHE ([18]; 250 g ai/ha) | phytotoxicity rating CHEAL ([20]; 63 g ai/ha) | phytotoxicity rating CHEAL ([20]; 250 g ai/ha) | phytotoxicity rating AMARE ([22]; 63 g ai/ha) | phytotoxicity rating AMARE ([22]; 250 g ai/ha) | phytotoxicity rating ABUTH ([24]; 63 g ai/ha) | phytotoxicity rating ABUTH ([24]; 250 g ai/ha) | crop damage rating CORN ([25]; 63 g ai/ha) | crop damage rating CORN ([25]; 250 g ai/ha)
35: phytotoxicity rating ECHCO ([1]; 63 g ai/ha) | phytotoxicity rating ECHCG ([14]; 63 g ai/ha)
75: phytotoxicity rating XANST ([2]; 63 g ai/ha) | phytotoxicity rating SORHA ([6]; 63 g ai/ha) | phytotoxicity rating XANST ([15]; 63 g ai/ha) | phytotoxicity rating SORHA ([19]; 63 g ai/ha)
30: phytotoxicity rating DIGSA ([8]; 63 g ai/ha) | phytotoxicity rating DIGSA ([21]; 63 g ai/ha)
90: phytotoxicity rating SETVI ([4]; 63 g ai/ha) | phytotoxicity rating SETVI ([17]; 63 g ai/ha)
45: crop damage rating RICE ([13]; 63 g ai/ha) | crop damage rating RICE ([26]; 63 g ai/ha)

CCOC(=O)NNC(=O)c1cc(-n2c(=O)cc(C(F)(F)F)n(C)c2=O)c(F)cc1Cl [Compound 1-23]
98: phytotoxicity rating IPOHE ([5]; 63 g ai/ha) | phytotoxicity rating CASOB ([10]; 63 g ai/ha) | phytotoxicity rating CASOB ([10]; 250 g ai/ha) | phytotoxicity rating IPOHE ([18]; 63 g ai/ha) | phytotoxicity rating CASOB ([23]; 63 g ai/ha) | phytotoxicity rating CASOB ([23]; 250 g ai/ha)
55: phytotoxicity rating SETVI ([4]; 63 g ai/ha) | phytotoxicity rating SETVI ([17]; 63 g ai/ha)
80: crop damage rating CORN ([12]; 63 g ai/ha) | crop damage rating CORN ([25]; 63 g ai/ha)
45: crop damage rating RICE ([13]; 63 g ai/ha) | crop damage rating RICE ([26]; 63 g ai/ha)
75: phytotoxicity rating ECHCO ([1]; 250 g ai/ha) | phytotoxicity rating DIGSA ([8]; 63 g ai/ha) | phytotoxicity rating DIGSA ([8]; 250 g ai/ha) | phytotoxicity rating ECHCG ([14]; 250 g ai/ha) | phytotoxicity rating DIGSA ([21]; 63 g ai/ha) | phytotoxicity rating DIGSA ([21]; 250 g ai/ha)
100: phytotoxicity rating XANST ([2]; 63 g ai/ha) | phytotoxicity rating XANST ([2]; 250 g ai/ha) | phytotoxicity rating AMBEL ([3]; 250 g ai/ha) | phytotoxicity rating IPOHE ([5]; 250 g ai/ha) | phytotoxicity rating CHEAL ([7]; 63 g ai/ha) | phytotoxicity rating CHEAL ([7]; 250 g ai/ha) | phytotoxicity rating AMARE [9, 27] | phytotoxicity rating AMARE ([9]; 250 g ai/ha, scale 0-100) | phytotoxicity rating ABUTH ([11]; 63 g ai/ha) | phytotoxicity rating ABUTH ([11]; 250 g ai/ha) | crop damage rating CORN ([12]; 250 g ai/ha) | phytotoxicity rating XANST ([15]; 63 g ai/ha) | phytotoxicity rating XANST ([15]; 250 g ai/ha) | phytotoxicity rating AMBEL ([16]; 250 g ai/ha) | phytotoxicity rating IPOHE ([18]; 250 g ai/ha) | phytotoxicity rating CHEAL ([20]; 63 g ai/ha) | phytotoxicity rating CHEAL ([20]; 250 g ai/ha) | phytotoxicity rating AMARE ([22]; 63 g ai/ha) | phytotoxicity rating AMARE ([22]; 250 g ai/ha) | phytotoxicity rating ABUTH ([24]; 63 g ai/ha) | phytotoxicity rating ABUTH ([24]; 250 g ai/ha) | crop damage rating CORN ([25]; 250 g ai/ha)
70: phytotoxicity rating SORHA ([6]; 63 g ai/ha) | phytotoxicity rating SORHA ([19]; 63 g ai/ha)
85: phytotoxicity rating AMBEL ([3]; 63 g ai/ha) | crop damage rating RICE ([13]; 250 g ai/ha) | phytotoxicity rating AMBEL ([16]; 63 g ai/ha) | crop damage rating RICE ([26]; 250 g ai/ha)
50: phytotoxicity rating ECHCO ([1]; 63 g ai/ha) | phytotoxicity rating ECHCG ([14]; 63 g ai/ha)
99: phytotoxicity rating SETVI ([4]; 250 g ai/ha) | phytotoxicity rating SORHA ([6]; 250 g ai/ha) | phytotoxicity rating SETVI ([17]; 250 g ai/ha) | phytotoxicity rating SORHA ([19]; 250 g ai/ha)
